In PMC12631437, “Evaluation of the Activity of 4‑Quinolones against Multi-Life Stages of Plasmodium spp” (ACS Omega, 2025):
Like-named read-outs stand apart in the source and are kept apart here.

Legend:
[1] = system: P. berghei hepatic stages; experiment: Hepatic stage bioluminescence assay, Huh-7 cells infected with luciferase-expressing sporozoites; format: cell-based, Plasmodium berghei; conditions: Plasmodium berghei; Huh-7 cells, 48 h after sporozoite addition; read-out: IC50 (μM) Pb liver stages
Procedure: (§1) Huh-7 cells were cultured in RPMI 1640 medium (Sigma) supplemented with 10% v/v fetal bovine serum (FBS), 1% v/v penicillin/streptomycin, 1% v/v glutamine, 1% v/v nonessential amino acids, and 10 mM HEPES, pH 7. For compound dilution, a medium containing 1:1000 gentamicin (G) and 1:300 fungizone (F) was used. Cells were seeded at 1 × 10^4 cells/well in 96-well plates and incubated at 37 °C with 5% CO2. After 24 h, compounds were diluted in RPMI+F+G, and after removal of the culture medium, added to the cells in triplicate. DMSO and atovaquone were used as negative and positive controls, respectively. Following incubation for 1 h at 37 °C, 5% CO2, the cells were infected with luciferase-expressing P. berghei sporozoites (4,000 parasites per well) freshly extracted from the salivary glands of infected mosquitoes reared at the GIMM insectarium. The viability of Huh-7 cells exposed to the compounds was assessed 46 h later by the AlamarBlue assay (Invitrogen, UK) measurement, and parasite burden was measured 48 h after sporozoite addition using a bioluminescence assay (Biotium). IC50 values were calculated using GraphPad Prism through nonlinear regression analysis of normalized dose–response curves.

Huh-7 cells = experiment: Alamar Blue cell confluency (cytotoxicity) in Huh-7 cells; format: cell-based
Procedure: as §1, with “For” for “Huh-7 cells were cultured in RPMI 1640 medium (Sigma) supplemented with 10% v/v fetal bovine serum (FBS), 1% v/v penicillin/streptomycin, 1% v/v glutamine, 1% v/v nonessential amino acids, and 10 mM HEPES, pH 7. For”, “DMSO and atovaquone were used as negative and positive controls, respectively.” left out
On the first day of the assay, the compounds were diluted at 10 and 1 μM in cRPMI medium supplemented with fungizone. and gentamicin. The culture medium of Huh-7 cells was removed and replaced with compound dilutions in triplicate. As a control, a DMSO dilution mimicking the highest compound concentration used was included. The cells were incubated for 1 h at 37 °C in a 5% CO2 atmosphere.
On the second day of the assay, compound toxicity was assessed by measuring cell confluency using the Alamar Blue/CellTiter Blue reagent. First, reagent aliquots stored at −20 °C were thawed and diluted at a 1:20 ratio in cRPMI. The culture medium was removed and replaced with 80 μL of the solution per well, followed by incubation at 37 °C and 5% CO2 for 1 h and 30 min. Fluorescence was measured using a plate reader with the Tecan i-Control software.

P. vivax ookinetes = experiment: Ex vivo P. vivax ookinete formation assay with patient isolates; format: cell-based, Plasmodium vivax; conditions: 24 h
Procedure: Participants were recruited from patients diagnosed with P. vivax malaria via Giemsa-stained blood smears at CEPEM in Porto Velho, Rondônia, Brazil (#28176720.9.0000.0011). Criteria included: P. vivax parasitemia >2000 parasites/μL, age 18–85, no severe malaria, no concomitant diseases, nonpregnant, and consent to study procedures. Approximately 10 mL of venous blood was collected into heparin-coated vials, maintained at 37 °C, and transported to PIVEM for DMFA. Malaria treatment followed Brazilian Ministry of Health guidelines and was unaffected by study participation. […] Erythrocytes were washed with incomplete RPMI-1640 medium by centrifugation at 1500 rpm for 10 min to remove leukocytes. […] The sample was centrifuged once at 450 g for 15 min without a brake. After centrifugation, the pellet remaining at the interface was collected and washed twice at 2000 g for 5 min. […] The parasites were incubated for 24 h at a temperature of 21–24 °C. After this period, the activity of the compounds was determined by microscopy, counting 100 fields to determine the parasitemia per μL in each sample, and counting the mature and immature ookinetes. […] Red blood cells were then washed with incomplete RPMI-1640 medium through centrifugation at 1500 rpm for 10 min to remove leukocytes. […] The sample was centrifuged once at 2000 rpm for 15 min without brake. After centrifugation, the remaining pellet at the interface was collected and washed twice at 2000 rpm for 5 min. […] Parasites were incubated for 24 h at a temperature of 21–24 °C. After this period, compound activity was determined by microscopy counting in 100 fields to determine parasitemia per μL in each sample.

[2] = system: Plasmodium falciparum 3D7 sensitive strain; experiment: SYBR Green growth assay, asexual blood stages, 3D7 sensitive strain; format: cell-based
Procedure: Parasite strains SB1-A6, 7G8, V1/S, and HB3 were acquired from BEI-MR4, while the ATQ R1 strain, carrying a V259L gene mutation, was generated in-house. […] Parasitemia was monitored using Giemsa-stained blood smears.
Bioassays were conducted with synchronized ring-stage parasites using sorbitol synchronization. Antimalarial compounds were evaluated in 96-well plates, and parasite growth was assessed using a SYBR Green-based fluorescence assay The assays were conducted when the parasite quantity reached at least 70% of the ring stage. Compounds were initially added at specific concentrations in the first wells, followed by serial dilution (1:2) ranging from 20 μM to 0.009 μM. Subsequently, a solution containing parasites in RPMI medium at a hematocrit of 2% was added to each well, and the parasites were then incubated for 72 h.
The IC50 values were determined using concentration–response curves generated in GraphPad 8 software. Additionally, the resistance index was calculated by comparing IC50 values obtained for the sensitive 3D7 strain with those of the resistant strains.

[3] = Plasmodium vivax, read-out: P. vivax ookinete formation inhibition (median)
[4] = Plasmodium falciparum, 3D7, 72 h, asexual blood stages, 3D7 sensitive strain, 72 h, read-out: IC50
[5] = asexual blood stages, 3D7 sensitive strain, 72 h, read-out: IC50

SMILES | IC50 [1] [µM] | Confluency % (Huh-7 cells; 1 μM) [%] | Confluency % (Huh-7 cells; 10 μM) [%] | P. vivax ookinete formation inhibition (median) (P. vivax ookinetes; 0.4 μM) | inhibition at 2 µM (P. vivax ookinetes; [3]) [%] | IC50 [2, 4] [nM] | IC50 [2, 5] [nM] | inhibition at 0.4 µM (P. vivax ookinetes; Plasmodium vivax, 0.4 μM, read-out: P. vivax ookinete formation inhibition (median)) [%] | inhibition at 10 µM (P. vivax ookinetes; Plasmodium vivax, 10 μM, n = 6 patients, read-out: P. vivax ookinete formation inhibition (median)) [%] | IC50 ([2]; Plasmodium falciparum, 3D7, 3D7, strain assigned by order of panels, read-out: IC50 (Figure S1)) [nM]
CCCCCCOc1ccc(-c2cc(=O)c3ccccc3[nH]2)cc1 [compound 6, 2-(4-(Hexyloxy)-phenyl)-quinolin-4(1H)-one] | 0.38 ± 0.04 | 105 ± 3 | 102 ± 11 | no activity | 83 | 560 ± 70 | 500 |  |  | 
CCCCCCCCCCCc1cc(=O)c2ccccc2[nH]1 [compound 1, 2-Undecilquinolin-4(1H)-one] | 0.25 ± 0.01 | 97 ± 6 | 79 ± 2 |  | 84 | 210 ± 40 | 200 ± 100 | 70 | 97 | 270
